Laboratory results reported in US11702409B2, “Pyrazolyl derivatives useful as anti-cancer agents” (NOVARTIS AG, priority 2019, dated 2023).

Molecular target: KRasG12C (M1-K169, biotinylated on the N-terminus) (Homo sapiens (Human), UniProt P01116, G12C)
Experiment: Covalent competition assay (scintillation proximity assay, competition with radiolabeled covalent probe Compound B)
Format: binding
Details: in vitro KRASG12C activity; 10 nM KRasG12C:GDP, 25 nM radio-ligand and 475 nM unlabelled ligand, incubated 2 hours; read-out: Covalent Competition Assay IC50
Protocol: The cells were lysed by 4 passages through an Avestin Emulsiflex at about 20000 psi and insoluble debris removed by centrifugation and filtered through a 0.45 μm Durapore membrane (Millipore). […] The protein in the flow through was subjected to a final polishing step on a HiLoad 16/60 Superdex 200 prep grade size-exclusion column pre-equilibrated with SEC-buffer (20 mM HEPES pH 7.4, 150 mM NaCl, 5 mM MgCl2, 1 μM GDP).
A scintillation proximity assay (SPA) was used to determine the potency of the compounds. This assay measures the ability of the test compound to compete with the radiolabeled covalent probe for binding to and covalently modify KRASG12C.
A serial dilution of the compounds to be tested is mixed with a fixed concentration of the radiolabeled covalent probe before incubation with KRASG12C:GDP as described below.
The reaction was started by addition of KRasG12C (M1-K169, biotinylated on the N-terminus) to the compounds and incubated for 2 hours with continuous agitation allowing for full modification of KRasG12C with probe or test compounds. […] The assay buffer contained 20 mM Tris-HCl pH 7.5 (Invitrogen), 150 mM NaCl (Sigma Aldrich), 0.1 mM MgCl2 (Sigma Aldrich), and 0.01% Tween-20 (Sigma Aldrich).
Evaluation was carried out using assay data analysis software (such as the standard Novartis in-house Helios software application, Novartis Institutes for BioMedical Research, unpublished) using the methods described in Formenko et al., Robust Regression for high-throughput screening.
Evaluation can also be carried out using commercially available software which is designed to derive IC50 values using 4-parameter fits (e.g. GraphPad Prism, XL fit).

Row | Structure (SMILES) | IC50
1 | C=CC(=O)N1CC2(CC(n3nc(-c4ccc5nn(CCOC)cc5c4)c(-c4c(Cl)c(C)cc5[nH]ncc45)c3C)C2)C1 (single isomer, unassigned) [Example 41a, 1-(6-{(4M)-4-(5-Chloro-6-methyl-1H-indazol-4-yl)-3-[2-(2-methoxyethyl)-2H-indazol-5-yl]-5-methyl-1H-pyrazol-1-yl}-2-azaspiro[3.3]heptan-2-yl)prop-2-en-1-one] | 11 nM
2 | C=CC(=O)N1CC2(CC(n3nc(-c4ccc5cnccc5c4)c(-c4c(Cl)c(C)cc5[nH]ncc45)c3C)C2)C1 (single isomer, unassigned) [Example 25a] | 41 nM
3 | C=CC(=O)N1CC2(CC(n3nc(-c4ccccc4)c(-c4c(Cl)c(C)cc5[nH]ncc45)c3C)C2)C1 (single isomer, unassigned) [Example 26a, 1-{6-[(4M)-4-(5-Chloro-6-methyl-1H-indazol-4-yl)-5-methyl-3-phenyl-1H-pyrazol-1-yl]-2-azaspiro[3.3]heptan-2-yl}prop-2-en-1-one] | 43 nM
4 | C=CC(=O)N1CC2(CC(n3nc(-c4cccnc4)c(-c4c(Cl)c(C)cc5[nH]ncc45)c3C)C2)C1 (single isomer, unassigned) [Example 27a] | 251 nM
5 | C=CC(=O)N1CC2(CC(n3nc(-c4ccc5c(c4)C(=O)OC5)c(-c4c(Cl)c(C)cc5[nH]ncc45)c3C)C2)C1 (single isomer, unassigned) [Example 54b] | > 50000 nM
6 | C=CC(=O)N1CC2(CC(n3nc(-c4cnc5c(cnn5C)c4)c(-c4c(Cl)c(C)cc5[nH]ncc45)c3C)C2)C1 (single isomer, unassigned) [Example 37a] | 112 nM
7 | C=CC(=O)N1CC2(CC(n3nc(-c4ccc(N5CCS(=O)(=O)CC5)cc4)c(-c4c(Cl)c(C)cc5[nH]ncc45)c3C)C2)C1 (single isomer, unassigned) [Example 50b, 1-(6-(4-(5-chloro-6-methyl-1H-indazol-4-yl)-3-(4-(1,1-dioxidothiomorpholino)phenyl)-5-methyl-1H-pyrazol-1-yl)-2-azaspiro[3.3]heptan-2-yl)prop-2-en-1-one] | 4240 nM
8 | C=CC(=O)N1CC2(CC(n3nc(-c4cc5cn(C)nc5cn4)c(-c4c(Cl)c(C)cc5[nH]ncc45)c3C)C2)C1 [Example 77] | 195 nM
9 | C=CC(=O)N1CC2(CC(n3nc(-c4ccc(CN5CCCS5(=O)=O)cc4)c(-c4c(Cl)c(C)cc5[nH]ncc45)c3C)C2)C1 (single isomer, unassigned) [Example 5a] | 43 nM
10 | C=CC(=O)N1CC2(CC(n3nc(-c4ccc5nn(CCN6CC[C@H](F)C6)cc5c4)c(-c4c(Cl)c(C)cc5[nH]ncc45)c3C)C2)C1 (single isomer, unassigned) [Example 80b] | 8 nM
11 | C=CC(=O)N1CC2(CC(n3nc(-c4cccnc4)c(-c4c(Cl)c(C)cc5[nH]ncc45)c3C(F)F)C2)C1 (single isomer, unassigned) [Example 87b] | > 50000 nM
12 | C=CC(=O)N1CC2(CC(n3nc(-c4ccc(C(=O)NCCOC)cc4)c(-c4c(Cl)c(C)cc5[nH]ncc45)c3C)C2)C1 (single isomer, unassigned) [Example 62a, 4-(1-(2-acryloyl-2-azaspiro[3.3]heptan-6-yl)-4-(5-chloro-6-methyl-1H-indazol-4-yl)-5-methyl-1H-pyrazol-3-yl)-N-(2-methoxyethyl)benzamide] | 45 nM
13 | C=CC(=O)N1CC2(CC(n3nc(-c4ccc5c(c4)CCN5CCOC)c(-c4c(Cl)c(C)cc5[nH]ncc45)c3C)C2)C1 (single isomer, unassigned) [Example 44b] | > 5000 nM
14 | C=CC(=O)N1CC2(CC(n3nc(-c4cnn5c4CCC5)c(-c4c(Cl)c(C)cc5[nH]ncc45)c3C)C2)C1 (single isomer, unassigned) [Example 34b] | > 50000 nM
15 | C=CC(=O)N1CC2(CC(n3nc(-c4ccc5c(cnn5C)c4)c(-c4c(Cl)c(C)cc5[nH]ncc45)c3C)C2)C1 (single isomer, unassigned) [Example 1a] | 17 nM
16 | C=CC(=O)N1CC2(CC(n3nc(-c4ccc5ncnn5c4)c(-c4c(Cl)c(C)cc5[nH]ncc45)c3C)C2)C1 (single isomer, unassigned) [Example 23a] | 564 nM
17 | C=CC(=O)N1CC2(CC(n3nc(-c4ccc(NCCOC)cc4F)c(-c4c(Cl)c(C)cc5[nH]ncc45)c3C)C2)C1 (single isomer, unassigned) [Example 61a, 1-(6-(4-(5-chloro-6-methyl-1H-indazol-4-yl)-3-(2-fluoro-4-((2-methoxyethyl)amino)phenyl)-5-methyl-1H-pyrazol-1-yl)-2-azaspiro[3.3]heptan-2-yl)prop-2-en-1-one] | 27 nM
18 | C=CC(=O)N1CC2(CC(n3nc(-c4ccc5c(cnn5CCN5CCOCC5)c4)c(-c4c(Cl)c(C)cc5[nH]ncc45)c3C)C2)C1 (single isomer, unassigned) [Example 17b] | 14600 nM
19 | C=CC(=O)N1CC2(CC(n3nc(-c4ccc5nn(CCOC)cc5c4)c(-c4c(Cl)c(C)cc5[nH]nc(N)c45)c3C)C2)C1 (single isomer, unassigned) [Example 69b, 1-(6-(4-(3-amino-5-chloro-6-methyl-1H-indazol-4-yl)-3-(2-(2-methoxyethyl)-2H-indazol-5-yl)-5-methyl-1H-pyrazol-1-yl)-2-azaspiro[3.3]heptan-2-yl)prop-2-en-1-one] | 840 nM

The remaining lines, values ahead:

Row | IC50 | Structure (SMILES)
20 | 33800 nM | C=CC(=O)N1CC2(CC(n3nc(-c4ccc(C(=O)NCCOC)c(F)c4)c(-c4c(Cl)c(C)cc5[nH]ncc45)c3C)C2)C1 (single isomer, unassigned) [Example 63b]
21 | 15000 nM | C=CC(=O)N1CC2(CC(n3nc(-c4ccc(CN5CCCS5(=O)=O)cc4)c(-c4c(Cl)c(C)cc5[nH]ncc45)c3C)C2)C1 (single isomer, unassigned) [Example 5b]
22 | 2900 nM | C=CC(=O)N1CC2(CC(n3nc(-c4cnc5c(ccn5C)c4)c(-c4c(Cl)c(C)cc5[nH]ncc45)c3C)C2)C1 (single isomer, unassigned) [Example 8b]
23 | 15000 nM | C=CC(=O)N1CC2(CC(n3nc(-c4cccc5c4cnn5C)c(-c4c(Cl)c(C)cc5[nH]ncc45)c3C)C2)C1 (single isomer, unassigned) [Example 29b]
24 | 465 nM | C=CC(=O)N1CC2(CC(n3nc(-c4cscn4)c(-c4c(Cl)c(C)cc5[nH]ncc45)c3C)C2)C1 (single isomer, unassigned) [Example 51a, 1-(6-(4-(5-chloro-6-methyl-1H-indazol-4-yl)-5-methyl-3-(thiazol-4-yl)-1H-pyrazol-1-yl)-2-azaspiro[3.3]heptan-2-yl)prop-2-en-1-one]
25 | 806 nM | C=CC(=O)N1CC2(CC(n3nc(-c4cccnc4)c(-c4c(Cl)c(C)cc5[nH]ncc45)c3C(F)F)C2)C1 (single isomer, unassigned) [Example 87a]
26 | > 50000 nM | C=CC(=O)N1CC2(CC(n3nc(-c4cnc5c(cnn5C)c4)c(-c4c(Cl)c(C)cc5[nH]ncc45)c3C)C2)C1 (single isomer, unassigned) [Example 37b]
27 | 240 nM | C=CC(=O)N1CC2(CC(n3nc(-c4ccc(C(=O)N(C)CCOC)cc4)c(-c4c(Cl)c(C)cc5[nH]ncc45)c3C)C2)C1 (single isomer, unassigned) [Example 66a, 4-(1-(2-acryloyl-2-azaspiro[3.3]heptan-6-yl)-4-(5-chloro-6-methyl-1H-indazol-4-yl)-5-methyl-1H-pyrazol-3-yl)-N-(2-methoxyethyl)-N-methylbenzamide]
28 | 21600 nM | C=CC(=O)N1CC2(CC(n3nc(-c4cccnc4)c(-c4c(Cl)c(Cl)cc5[nH]ncc45)c3C(F)F)C2)C1 (single isomer, unassigned) [Example 85b]
29 | 310 nM | C=CC(=O)N1CC2(CC(n3nc(-c4ccc5cn[nH]c5c4)c(-c4c(Cl)c(C)cc5[nH]ncc45)c3C)C2)C1 [Example 14]
30 | 251 nM | C=CC(=O)N1CC2(CC(n3nc(-c4ccc5c(c4)CN(C)C5)c(-c4c(Cl)c(C)cc5[nH]ncc45)c3C)C2)C1 (single isomer, unassigned) [Example 75a]
31 | 88 nM | C=CC(=O)N1CC2(CC(n3nc(-c4ccc(C(=O)NCCOC)c(F)c4)c(-c4c(Cl)c(C)cc5[nH]ncc45)c3C)C2)C1 (single isomer, unassigned) [Example 63a]
32 | 3200 nM | C=CC(=O)N1CC2(CC(n3nc(-c4ccc(O)cc4)c(-c4c(Cl)c(C)cc5[nH]ncc45)c3C)C2)C1 (single isomer, unassigned) [Example 57b]
33 | > 50000 nM | C=CC(=O)N1CC2(CC(n3nc(-c4ccc5c(c4)CC(=O)N5C)c(-c4c(Cl)c(C)cc5[nH]ncc45)c3C)C2)C1 (single isomer, unassigned) [Example 24b]
34 | 235 nM | C=CC(=O)N1CC2(CC(n3nc(-c4ccnn4CC4CC4)c(-c4c(Cl)c(C)cc5[nH]ncc45)c3C)C2)C1 (single isomer, unassigned) [Example 45a, 1-(6-(4-(5-chloro-6-methyl-1H-indazol-4-yl)-2′-(cyclopropylmethyl)-5-methyl-1H,2′H-[3,3′-bipyrazol]-1-yl)-2-azaspiro[3.3]heptan-2-yl)prop-2-en-1-one]
35 | 1550 nM | C=CC(=O)N1CC2(CC(n3nc(-c4c(C)cncc4C)c(-c4c(Cl)c(C)cc5[nH]ncc45)c3C)C2)C1 (single isomer, unassigned) [Example 74a]
